The record followed here is ChEMBL document CHEMBL3228028, “Enzyme affinity of the 5,6-dihydro derivatives of the substrate and product of thymidylate synthetase catalysis” (J Med Chem, 1979).

Each structure is given as a SMILES string. pKi: −log10 of the molar value.

Assay [1] deals with T1, Thymidylate synthase (Lactobacillus casei, UniProt P00469).
T1 sequence (P00469 whole entry): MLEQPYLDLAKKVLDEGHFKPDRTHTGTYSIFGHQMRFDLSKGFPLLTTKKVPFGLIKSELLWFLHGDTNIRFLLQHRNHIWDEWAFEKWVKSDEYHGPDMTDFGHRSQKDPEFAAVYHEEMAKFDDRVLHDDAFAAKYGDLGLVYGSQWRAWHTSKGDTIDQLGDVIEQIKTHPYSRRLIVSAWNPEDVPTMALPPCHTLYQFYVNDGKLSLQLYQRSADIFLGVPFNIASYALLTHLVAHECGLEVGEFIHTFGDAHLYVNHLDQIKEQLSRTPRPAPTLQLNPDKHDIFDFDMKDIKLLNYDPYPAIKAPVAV
Put plainly: Competitive inhibition of Lactobacillus casei thymidylate synthetase using dTMP as substrate assessed as release of water after 15 mins by double reciprocal plot analysis. Details: species or system Lacticaseibacillus casei.

In assay [2] the target is T1, Thymidylate synthase. Put plainly: Competitive inhibition of Lactobacillus casei thymidylate synthetase using 2'-deoxy[5-3H]uridine-5'-phosphate as substrate assessed as release of water after 15 mins by double reciprocal plot analysis. The arrangement: species or system Lacticaseibacillus casei.

Broadly, the pKi is the Ki on a negative log10 scale, so that one unit is a factor of ten. `O=C1CCN([C@H]2C[C@H](O)[C@@H](COP(=O)(O)O)O2)C(=O)N1`: the pKi at Thymidylate synthase [1] is 5.55; at Thymidylate synthase [2], 4.00.
Take `CC1CN([C@H]2C[C@H](O)[C@@H](COP(=O)(O)O)O2)C(=O)NC1=O` (stereo partly drawn): on Thymidylate synthase [2], the pKi was 3.82.
